# Literature values in patent publication US20060193883A1, “Pesticidal treatment materials” (priority 1999, published 2006).
# Test system: house dust mite populations
# Conditions: in vivo
row,SMILES,effectiveness as long-term acaricides against house dust mite populations
1,CC1(C)[C@H](C(=O)O[C@H](C#N)c2cccc(Oc3ccccc3)c2)[C@@H]1C=C(Br)Br [deltamethrin],highly effective
2,CC1(C)C(C=C(Cl)Cl)C1C(=O)OCc1cccc(Oc2ccccc2)c1 (centres unmarked) [permethrin],highly effective
